Source: EPA's aquatic toxicity sets

Key:
[1] = tested on: Pimephales promelas; assay: 96 h LC50 (-log10 mol/L); higher = more toxic
[2] = tested on: Tetrahymena pyriformis; assay: 48 h IGC50 (-log10 mol/L); higher = more toxic

SMILES	96 h LC50 (-log10 mol/L) [1]	48 h IGC50 (-log10 mol/L) [2]
CCCCCCCC(C)=O	3.97	3.66
Cc1ccc(C)c(O)c1C	4.22	3.28
Cc1nc(C)c(C)o1	2.4	1.99
Cc1ccccn1	2.02	1.99
Oc1ccc(Cl)cc1Cc1cc(Cl)ccc1O	5.94	6.09
CCCCCO	2.22	1.97
O=Cc1ccc(Cl)cc1	4.8	3.4
O=[N+]([O-])c1ncccc1O	2.92	3.87
O=[N+]([O-])c1cc([N+](=O)[O-])c(Cl)cc1Cl	6.78	5.72
C=CC(=O)OC1CCCCC1	5.02	3.76
CCCCCCCBr	5.09	4.49
Oc1c(Br)cc(Br)cc1Br	4.71	4.91
OCC(Br)CBr (centres undefined)	3.49	2.51
c1ccc2ncccc2c1	3.45	3.09
NC(=O)c1ccccc1	2.26	2.09
C=CCOC(=O)C(=C)C	5.11	2.32
CCOc1ccc(C=O)cc1	3.74	3.07
Cc1ccc(C)c(C)c1	4.19	3.78
O=Cc1cccnc1	3.81	2.87
C=CC(=O)OCC(C)O (centres undefined)	4.59	3.65
CCCCCCCCN	4.4	3.35
C=CC(=O)OCCO	4.38	3.69

SMILES	96 h LC50 (-log10 mol/L) [1]	48 h IGC50 (-log10 mol/L) [2]
Cc1cc(Cl)nc(N)n1	3.01	2.53
CCN(CC)c1ccccc1	3.96	3.66
O=Cc1c(F)c(F)c(F)c(F)c1F	5.25	3.82
Cc1cccc(O)c1[N+](=O)[O-]	3.52	3.61
CCc1ccccn1	2.41	2.13
CCC(C)=NO	2.01	1.93
CCOC(=O)C(Cc1ccccc1)C(=O)OCC	4.66	3.71
COC(=O)c1ccc(Cl)cc1	4.16	3.42
CC(C)=NO	2.12	1.75
C=C(C)C(=O)OCc1ccccc1	4.58	3.65
O=[N+]([O-])c1c(Cl)cc(Cl)c([N+](=O)[O-])c1Cl	6.09	5.19
CCCCCCC1CCC(=O)O1 (centres undefined)	3.98	3.49
C=CC(=O)OCC	4.6	3.52
CC(C)O	0.778	1.12
CCCCOC(=O)CCC	4.09	3.52
CCCCCCCCO	3.98	3.58
CCCCCCBr	4.68	3.94
CC(=O)c1ccc(Cl)cc1Cl	4.21	3.62
CC(=O)OC(C)(C)C	2.55	1.51
C=CCC(O)C=C (centres undefined)	3.41	3.25
Cc1cccc(Cl)c1C#N	4	3.46
C=Cn1c2ccccc2c2ccccc21	7.81	5.24

SMILES	96 h LC50 (-log10 mol/L) [1]	48 h IGC50 (-log10 mol/L) [2]
CC(=O)Nc1cccc(O)c1	2.13	2.84
CCCCCCCCCCCC(C)=O	5.74	5.12
CCCC=O	3.65	2.62
COC(=O)c1ccc(Cl)cc1[N+](=O)[O-]	3.9	3.82
C#CC(C)O (centres undefined)	3.78	2.6
Cc1ccc([N+](=O)[O-])c(O)c1	3.51	3.59
COCCN	2.16	1.21
CC(O)CCl (centres undefined)	2.59	1.51
CCC(C)=O	1.35	1.25
O=C(c1ccc(Br)cc1)c1cccnc1	4.11	3.82
Brc1ccc(Br)cc1	5.28	3.68
O=Cc1cc(O)ccc1[N+](=O)[O-]	3.6	3.33
C=CCN=C=S	6.06	5.06
C=CCc1ccc(O)c(OC)c1	3.83	3.42
Cc1ccc(C)o1	3.13	2.52
Nc1ccccc1	2.99	2.77
CCCCCC(=O)OCC	4.21	3.06
O=C(O)CCCCC(=O)O	3.18	2.39
NCCN1CCNCC1	1.77	2.21
CCCCCCCCBr	5.36	4.87
CC(=O)c1ccc(Cl)c(Cl)c1Cl	5.05	4.34
O=[N+]([O-])c1cccc2ccccc12	4.53	4

SMILES	96 h LC50 (-log10 mol/L) [1]	48 h IGC50 (-log10 mol/L) [2]
CC(=O)c1ccncc1	2.86	2.13
N#Cc1ccccn1	2.16	2.17
O=c1cc(-c2ccccc2)oc2ccccc12	4.8	4.41
C=C(C)C(=O)OCCO	2.76	1.92
Clc1nc(Cl)c(Cl)c(Cl)c1Cl	5.73	4.71
CC(=O)c1ccccc1	2.87	2.54
Nc1ccc(F)cc1	3.82	3.59
CCCCCCCCCCC(C)=O	5.19	4.67
CCNCc1ccccc1	3.37	3.22
CCOC(=O)CCCCC(=O)OCC	4.05	2.87
CN(C)c1ccccn1	2.98	2.45
C/C=C/C=O	4.92	4.06
O=Cc1ccc(Cl)cc1Cl	4.99	4.04
CCCCCOCCCCC	4.71	4.09
CCC(C)N (centres undefined)	2.42	2.33
c1ccc(-c2ccncc2)cc1	3.98	3.66
CCCCCC(=O)O	2.84	2.79
O=Cc1cc(Br)cc(Br)c1O	5.52	4.65
CCCCCc1ccccc1	4.94	4.79
Oc1ccc(Oc2ccccc2)cc1	4.58	4.36
c1ccc2occc2c1	3.93	2.89
COC(=O)c1ccc([N+](=O)[O-])cc1	3.88	3.39

SMILES	96 h LC50 (-log10 mol/L) [1]	48 h IGC50 (-log10 mol/L) [2]
O=C(c1ccccc1)c1ccncc1	3.25	2.91
CC(=O)C(C)C	2	1.83
CCOc1ccc(N)c([N+](=O)[O-])c1	3.85	3.76
CC(C)(CC(=O)O)CC(=O)O	1.05	2.34
O=Cc1ccc([N+](=O)[O-])cc1	4.17	3.2
COc1ccc(C(C)=O)c(O)c1	3.38	3.55
COC(=O)c1cc(Cl)ccc1Cl	4.17	3.81
O=Cc1cc(Br)ccc1O	5.19	4.11
Cc1c[nH]c2ccccc12	4.17	3.37
O=[N+]([O-])c1ccc(F)cc1	3.7	3.1
CCCCCCCCCC(C)=O	5.05	4.54
CC1(C)OCC(CO)O1 (centres undefined)	0.898	1.21
CC(C)(C)c1cc(C(C)(C)C)c(O)c(C(C)(C)C)c1	6.63	3.36
Oc1cccnc1Br	2.57	3.15
c1cc(CCc2ccncc2)ccn1	3.09	2.97
Nc1ccc(Cl)c(Cl)c1	4.32	4.37
OCCCc1cccnc1	2.96	2.16
CCOC(=O)CCCCCCCCC(=O)OCC	4.98	4.35
CC(C)COC(=O)c1ccccc1C(=O)OCC(C)C	5.49	4.44
